Assay results reported in paper PMC8236048, “Pharmaceutical design of a delivery system for the bacteriocin lacticin 3147” (Drug Delivery and Translational Research, 2021).

How the values were obtained:
[1] = target: T1, pepsin (Sus scrofa, UniProt P00791); experiment: Enzyme degradation of lacticin 3147 by pepsin (activity, MALDI-TOF, RP-HPLC); assay type: in vitro ADME; conditions: 3 h; for intact peptide after incubation with pepsin (MALDI-TOF): 25 mg/ml pepsin, 13.38 µg/ml Ltnα, 11.86 µg/ml Ltnβ, pH 2.29, n = 3; for concentration with versus without pepsin (RP-HPLC): 60 mg/ml pepsin, 62.5 µg/ml peptide, 37 °C, RP-HPLC UV 214 nm
T1 construct: purchased Sigma-Aldrich Ireland Ltd
T1 sequence (P00791 60-385): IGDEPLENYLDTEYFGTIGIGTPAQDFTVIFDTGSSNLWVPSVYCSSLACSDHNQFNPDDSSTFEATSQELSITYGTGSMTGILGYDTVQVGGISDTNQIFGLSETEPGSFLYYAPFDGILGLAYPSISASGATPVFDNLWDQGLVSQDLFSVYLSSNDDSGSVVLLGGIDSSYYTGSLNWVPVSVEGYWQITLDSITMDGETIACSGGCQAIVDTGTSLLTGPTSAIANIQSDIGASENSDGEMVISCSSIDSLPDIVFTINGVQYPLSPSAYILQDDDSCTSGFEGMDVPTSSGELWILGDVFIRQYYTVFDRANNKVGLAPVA
Procedure: (§1) Lacticin 3147 production was confirmed by matrix-assisted laser desorption ionization-time of flight (MALDI-TOF) mass spectrometry using sinapinic acid as the matrix. About 0.7 μl of the matrix solution (sinapinic acid, 4 mg/ml in 50% acetone/50% methanol) was added to the target plate and left to evaporate (30 s) at ambient conditions. Individual peptides (Ltnα or Ltnβ) were resuspended in 70% IPA and mixed at a 1:1 volume ratio with a 10-mg/ml stock solution of sinapinic acid in 60% ACN with 0.1% TFA. About 0.3 μl of this peptide-matrix solution was then added to the matrix layer previously applied to the plate and evaporated at ambient conditions. The plate was inserted into a MALDI-TOF Ultraflex mass spectrometer (Bruker) and analysed using reflectron positive 700–3500 Da mode. 100 shots were fired at 88% intensity. This method was also used for the analyses of samples from the enzyme degradation studies.
All lacticin 3147 samples were filtered through a 0.2-µm PES filter before analysis by RP-HPLC using an Agilent 1200 Infinity Series HPLC (Agilent Technologies, USA). The HPLC separations were carried out on an Aeris 3.6 µm Peptide 100 Å 250 × 4.6 mm, liquid chromatography column with a flow rate of 0.8 ml/min, and with 0.1% trifluoroacetic acid (TFA) in water as aqueous phase-A and 0.1% TFA in acetonitrile (ACN) as organic phase-B. The total run time was 51 min. The mobile phase started with 30:70 A:B for 3 min and change linearly to 35:65 A:B over 30 min. The organic phase was then adjusted to 100% within 1 min and continued to flow for 5 min. After this, the mobile phase returned to the initial ratio to stabilize the chromatographic system. The detector was set at 214 nm. The peak area (mAU) was plotted against the concentration (1.56–500 µg/ml) to make a calibration curve. The coefficients of determination (R^2 values) were 0.9963 and 0.9983 for Ltnα and Ltnβ respectively. This method was subsequently used for quantitative analysis of Ltnα and Ltnβ.
(§2) Trypsin and α-chymotrypsin stock solutions (50 mg/ml) were resuspended in water. Pepsin (50 mg/ml) was resuspended in 0.02 M HCL. About 1 mg/ml individual solutions of Ltnα and Ltnβ in 70% IPA were filtered and diluted (1 in 20) in sterile PBS to give a final peptide concentration of 50 µg/ml. After this, 5.3 µl Ltnα and 4.6 µl Ltnβ were added to the same well of a 96-well plate. The pH of the lacticin 3147-pepsin solution was 2.29. Control wells consisting of Ltnα and Ltnβ together, Ltnα alone, and Ltnβ alone with no enzyme were included. The 96-well plate was incubated for 3 h at 37 °C to allow the enzyme to act. After incubation, the wells were filled to 50 μl with PBS and 150 μl of diluted bacterial cell culture (L. monocytogenes at an OD of 0.1) was added to each well. The final peptide concentration of 400 nM (1.31 µg/ml Ltnα, 1.14 µg/ml Ltnβ) was obtained when the wells were filled to 200 µl. Blanks were set up in triplicate with media only and PBS only. The three control wells were also set up with bacterial culture and each enzyme only. […] The effect of the proteases pepsin, α-chymotrypsin, and trypsin on the lacticin 3147 peptides was determined by MALDI-TOF mass spectrometry. […] After 3 h, 1 µl was removed from each sample and it was analysed by MALDI-TOF mass spectrometry. […]
Pepsin’s effect on lacticin 3147 was also investigated by RP-HPLC. […] After incubation, aliquots were taken, filtered, and analysed by RP-HPLC to determine if pepsin degrades Ltnα or Ltnβ to any extent.

[2] = test system: trypsin; experiment: Enzyme degradation of lacticin 3147 by trypsin (activity, MALDI-TOF); assay type: in vitro ADME; conditions: 3 h incubation, n = 3
Procedure: as §1
Trypsin and α-chymotrypsin stock solutions (50 mg/ml) were resuspended in water. Pepsin (50 mg/ml) was resuspended in 0.02 M HCL. […] The effect of the proteases pepsin, α-chymotrypsin, and trypsin on the lacticin 3147 peptides was determined by MALDI-TOF mass spectrometry. […] After 3 h, 1 µl was removed from each sample and it was analysed by MALDI-TOF mass spectrometry. […]

[3] = target: T2, α-chymotrypsin (Bos taurus, UniProt P00766); experiment: Enzyme degradation of lacticin 3147 by α-chymotrypsin (activity, MALDI-TOF); assay type: in vitro ADME; conditions: 3 h incubation, n = 3
T2 construct: purchased Sigma-Aldrich Ireland Ltd
Procedure: as §1
as §2, with “µl.” for “µl. Blanks were set up in triplicate with media only and PBS only. The three control wells were also set up with bacterial culture and each enzyme only.”

[4] = test system: C. difficile; conditions: treatment failures of C. difficile infection after use of antibiotics; cited from earlier work
Excerpt: Approximately 223,900 C. difficile infections and 12,800 resulting deaths were reported in the USA in 2017 [17]. Treatment failures and recurrences of infection after the use of antibiotics are increasingly common, with a 2–38% failure rate for vancomycin and 8–50% for metronidazole. A more virulent strain of C. d ...

Structure (SMILES) | intact peptide after incubation with pepsin (MALDI-TOF) [1] | concentration with versus without pepsin (RP-HPLC) [1] | intact peptide after incubation with trypsin (MALDI-TOF) [2] | intact peptide after incubation with α-chymotrypsin (MALDI-TOF) [3] | failure rate [4]
CC=C(NC(=O)C1CSCC(N)C(=O)N1)C(=O)N[C@@H](CC(N)=O)C(=O)NC(=CC)C(=O)N[C@@H](Cc1ccccc1)C(=O)N[C@H](C)C(=O)N[C@@H](CC(C)C)C(=O)NC1CSCC(C(=O)NC2C(=O)N[C@@H](CC(C)C)C(=O)NC3C(=O)N[C@@H](Cc4c[nH]cn4)C(=O)N[C@@H](CCC(=O)O)C(=O)NC(CSC2C)C(=O)N[C@@H](CCSC)C(=O)N[C@@H](C)C(=O)N[C@@H](Cc2c[nH]c4ccccc24)C(=O)NC(C(=O)N[C@@H](CCCCN)C(=O)O)CSC3C)NC(=O)[C@H](Cc2c[nH]c3ccccc23)NC(=O)[C@H](C)NC(=O)CNC(=O)[C@H](CC(N)=O)NC(=O)[C@H](CC(N)=O)NC(=O)CNC(=O)[C@H](Cc2c[nH]c3ccccc23)NC(=O)[C@H](Cc2ccc(O)cc2)NC(=O)[C@H](CC(=O)O)NC1=O (stereo partly shown) [Ltnα] | Masses corresponding to Ltnα and Ltnβ can be seen | not significantly different | no masses corresponding to intact | no masses corresponding to intact | –
CC=C(NC(=O)C(=O)CC)C(=O)N1CCC[C@H]1C(=O)N[C@@H](C)C(=O)NC(=CC)C(=O)N1CCC[C@H]1C(=O)N[C@@H](C)C(=O)N[C@H](C(=O)N[C@H](C)C(=O)N[C@H](C(=O)N[C@@H](CC(C)C)C(=O)N[C@H](C)C(=O)N[C@@H](C)C(=O)N[C@@H](Cc1ccc(O)cc1)C(=O)N[C@H](C(=O)NC1CSCC(C(=O)N2CCC[C@H]2C(=O)NC2C(=O)N[C@@H]([C@@H](C)O)C(=O)N[C@@H](CCCCN)C(=O)NC(C(=O)NC3C(=O)N[C@@H](CCCNC(=N)N)C(=O)N[C@@H](C)C(=O)NC(C(=O)O)CSC3C)CSC2C)NC(=O)[C@H]([C@@H](C)O)NC(=O)[C@H](CC(N)=O)NC(=O)[C@H]([C@@H](C)O)NC1=O)[C@@H](C)CC)[C@@H](C)CC)[C@@H](C)CC (stereo partly shown) [Ltnβ] | Masses corresponding to Ltnα and Ltnβ can be seen | not significantly different | no masses corresponding to intact | no masses corresponding to intact | –
Cc1ncc([N+](=O)[O-])n1CCO [metronidazole] | – | – | – | – | 8–50%
CN[C@H](CC(C)C)C(=O)N[C@H]1C(=O)N[C@@H](CC(N)=O)C(=O)N[C@H]2C(=O)N[C@H]3C(=O)N[C@H](C(=O)N[C@H](C(=O)O)c4cc(O)cc(O)c4-c4cc3ccc4O)[C@H](O)c3ccc(c(Cl)c3)Oc3cc2cc(c3O[C@@H]2O[C@H](CO)[C@@H](O)[C@H](O)[C@H]2O[C@H]2C[C@](C)(N)[C@H](O)[C@H](C)O2)Oc2ccc(cc2Cl)[C@H]1O [vancomycin] | – | – | – | – | 2–38%
